Measured values published in ChEMBL document CHEMBL1138244, “Three-dimensional quantitative structure-activity relationships and activity predictions of human TRPV1 channel antagonists: comparative molecular field analysis and comparative molecular similarity index analysis of cinnamides” (J Med Chem, 2007).

test: Inhibition of rat human chimera TRPV1 channel expressed in CHO cells; type: cell-based

SMILES | IC50 | pIC50
O=C(/C=C/c1ccc([N+](=O)[O-])cc1)Nc1ccc2c(c1)OCCO2 | 583 nM | 6.23
O=C(/C=C/c1ccc(Cl)cc1)Nc1ccc2c(c1)OCCO2 | 216 nM | 6.67
O=C(/C=C/c1ccc(F)cc1)Nc1ccc2c(c1)OCCO2 | 1470 nM | 5.83
O=C(/C=C/c1ccc(Br)cc1)Nc1ccc2c(c1)OCCO2 | 339 nM | 6.47
O=C(/C=C/c1ccccc1)Nc1ccc2c(c1)OCCO2 | 5100 nM | 5.29
CC(C)(C)c1ccc(/C=C/C(=O)Nc2ccc3c(c2)O[C@@H](CO)CO3)cc1 | 254 nM | 6.59
CC(C)(C)c1ccc(/C=C/C(=O)Nc2ccc3c(c2)O[C@H](CO)CO3)cc1 | 216 nM | 6.66
COc1cccc(/C(=C/C(=O)Nc2ccc3c(c2)OCCO3)c2ccc(C(C)(C)C)cc2)c1 | 155 nM | 6.81
Cc1cccc(/C(=C/C(=O)Nc2ccc3c(c2)OCCO3)c2ccc(C(C)(C)C)cc2)c1 | 59 nM | 7.23
CC(C)(C)c1ccc(/C(I)=C/C(=O)Nc2ccc3c(c2)OCCO3)cc1 | 343 nM | 6.46
CC(C)(C)c1ccc(/C(=C\C(=O)Nc2ccc3c(c2)OCCO3)c2ccc(Cl)cc2)cc1 | 42 nM | 7.37
CC(C)(C)c1ccc(/C(=C\C(=O)Nc2ccc3c(c2)OCCO3)c2ccc(F)cc2)cc1 | 39 nM | 7.41
CC(C)(C)c1ccc(/C=C/C(=O)Nc2ccc3c(c2)OC[C@H](CO)O3)cc1 | 24 nM | 7.62
O=C(/C=C/c1ccc(C(F)(F)F)cc1C(F)(F)F)Nc1ccc2c(c1)OCCO2 | 451 nM | 6.35
COC[C@@H]1COc2cc(NC(=O)/C=C/c3ccc(C(C)(C)C)cc3)ccc2O1 | 1020 nM | 5.99
CC(C)(C)c1ccc(/C=C/C(=O)Nc2ccc3c(c2)OC[C@@H](CNCO)O3)cc1 | 690 nM | 6.16
CC(C)(C)c1ccc(/C=C/C(=O)Nc2cccc(OCCO)c2)cc1 | 859 nM | 6.07
COc1ccccc1/C(=C/C(=O)Nc1ccc2c(c1)OCCO2)c1ccc(C(C)(C)C)cc1 | 153 nM | 6.82
COc1ccc(/C(=C/C(=O)Nc2ccc3c(c2)OCCO3)c2ccc(C(C)(C)C)cc2)cc1 | 46 nM | 7.34
CC(C)(C)c1ccc(/C=C/C(=O)Nc2ccc3c(c2)OC[C@@H](COCC2CC2)O3)cc1 | 329 nM | 6.48
O=C(/C=C/c1cccc(C(F)(F)F)c1)Nc1ccc2c(c1)OCCO2 | 1210 nM | 5.92
O=C(/C=C/c1cccc2ccccc12)Nc1ccc2c(c1)OCCO2 | 643 nM | 6.19

SMILES | IC50 | pIC50
O=C(/C=C/c1ccc(F)cc1F)Nc1ccc2c(c1)OCCO2 | 3600 nM | 5.44
CC(=O)Nc1ccc(/C=C/C(=O)Nc2ccc3c(c2)OCCO3)cc1 | > 40000 nM | 4.4
CC(=O)Oc1ccc(/C=C/C(=O)Nc2ccc3c(c2)OCCO3)cc1 | 2330 nM | 5.63
Cc1ccc(C(=CC(=O)Nc2ccc3c(c2)OCCO3)c2ccc(C)cc2)cc1 | 247 nM | 6.61
O=C(/C=C/c1ccc(C2CC2)cc1)Nc1ccc2c(c1)OCCO2 | 419 nM | 6.38
Cc1ccc(/C=C/C(=O)Nc2ccc3c(c2)OCCO3)cc1C | 455 nM | 6.34
C=Cc1ccc(/C=C/C(=O)Nc2ccc3c(c2)OCCO3)cc1 | 3520 nM | 5.45
O=C(C=C(c1ccc(Br)cc1)c1ccc(Br)cc1)Nc1ccc2c(c1)OCCO2 | 61 nM | 7.22
Cc1ccc(/C(=C/C(=O)Nc2ccc3c(c2)OCCO3)c2ccc(C(C)(C)C)cc2)cc1 | 93 nM | 7.03
CC(C)(C)c1ccc(/C(=C\C(=O)Nc2ccc3c(c2)OCCO3)c2cccc(N)c2)cc1 | 331 nM | 6.48
O=C(/C=C/c1ccc(-c2ccccc2)cc1)Nc1ccc2c(c1)OCCO2 | > 40000 nM | 4.4
CCC(C)(C)c1ccc(/C=C/C(=O)Nc2ccc3c(c2)OCCO3)cc1 | 48 nM | 7.32
O=C(/C=C/c1ccc2ccccc2c1)Nc1ccc2c(c1)OCCO2 | 740 nM | 6.13
Cc1ccccc1/C(=C/C(=O)Nc1ccc2c(c1)OCCO2)c1ccc(C(C)(C)C)cc1 | 279 nM | 6.55
O=C(/C=C/c1ccc(I)cc1)Nc1ccc2c(c1)OCCO2 | 509 nM | 6.29
O=C(/C=C/c1ccc(C(F)(F)F)c(F)c1)Nc1ccc2c(c1)OCCO2 | 129 nM | 6.89
CN(C)C[C@@H]1COc2cc(NC(=O)/C=C/c3ccc(C(C)(C)C)cc3)ccc2O1 | 665 nM | 6.18
CC(C)(C)c1ccc(/C=C/C(=O)Nc2ccc3c(c2)OC[C@@H](CN)O3)cc1 | 1270 nM | 5.9
O=C(/C=C/c1cccc(OC(F)(F)F)c1)Nc1ccc2c(c1)OCCO2 | 1620 nM | 6.79
CC(C)(C)c1ccc(/C=C/C(=O)Nc2ccc3c(c2)OCCO3)cc1.Cl | 550 nM | 6.26
CC(C)(C)c1ccc(/C=C/C(=O)Nc2ccc3c(c2)OCCO3)cc1 (stereo in doubt; 1) | 23 nM | 7.59
CC(C)(C)c1ccc(/C=C/C(=O)Nc2ccc3c(c2)OCCO3)cc1 (stereo in doubt; 91) | 136 nM | 6.87
